Measurements: patent publication US20210154186A1, “COMPOSITIONS AND METHODS FOR INHIBITING DIHYDROOROTATE DEHYDROGENASE” (Clear Creek Bio, Inc., priority 2018, published 2021)
Where two headings read alike, the source gives them in different places.

Key:
[1] = Adverse events observed in subjects receiving brequinar intravenously once weekly; format: in vivo, human; details: 209 subjects, i.v. once week, median dose 1200 mg/m^2
[2] = tested on: acute myeloid leukemia (AML); assay: Clinical response of patients with AML to brequinar-containing composition; format: in vivo, human
DHODH [3] = target: DHODH (Homo sapiens, UniProt Q02127); details: for DHO plasma level threshold achieved: after a dose
[4] = 650 mg/m^2 brequinar (days 1, 8 and 15) with 75 mg/m^2 cisplatin (day 1); cited from earlier work
[5] = mouse model of AML, daily administration of high doses; cited from earlier work
[6] = tested on: leukemia-initiating cell activity; details: mouse models of AML; only when elevated plasma levels are maintained for extended periods; cited from earlier work
DHODH [7] = target: DHODH (Mus musculus, UniProt O35435); assay: DHO remaining in plasma of mice after brequinar 50 mg/kg (FIG. 6); details: at about 84 hours
solid malignancies = details: 43 patients; patient with papillary carcinoma of the thyroid; cited from earlier work
[8] = Example 9, first patient, threshold 1,600 ng/mL
[9] = Example 10, second patient, threshold 2,900 ng/mL
[10] = Example 11, threshold 133 ng/mL

Chain of DHODH (Homo sapiens, UniProt Q02127) (Q02127 whole entry): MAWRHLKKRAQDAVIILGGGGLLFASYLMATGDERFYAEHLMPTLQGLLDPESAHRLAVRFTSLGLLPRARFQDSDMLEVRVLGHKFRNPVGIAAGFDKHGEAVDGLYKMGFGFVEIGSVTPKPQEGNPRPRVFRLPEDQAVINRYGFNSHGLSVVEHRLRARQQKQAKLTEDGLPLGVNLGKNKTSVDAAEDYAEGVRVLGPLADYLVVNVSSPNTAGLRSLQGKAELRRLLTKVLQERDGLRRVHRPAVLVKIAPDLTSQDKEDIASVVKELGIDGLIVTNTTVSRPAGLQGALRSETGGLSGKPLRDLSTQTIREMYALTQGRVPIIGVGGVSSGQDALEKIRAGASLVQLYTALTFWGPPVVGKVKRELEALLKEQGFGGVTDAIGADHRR
Chain of DHODH (Mus musculus, UniProt O35435) (O35435 whole entry): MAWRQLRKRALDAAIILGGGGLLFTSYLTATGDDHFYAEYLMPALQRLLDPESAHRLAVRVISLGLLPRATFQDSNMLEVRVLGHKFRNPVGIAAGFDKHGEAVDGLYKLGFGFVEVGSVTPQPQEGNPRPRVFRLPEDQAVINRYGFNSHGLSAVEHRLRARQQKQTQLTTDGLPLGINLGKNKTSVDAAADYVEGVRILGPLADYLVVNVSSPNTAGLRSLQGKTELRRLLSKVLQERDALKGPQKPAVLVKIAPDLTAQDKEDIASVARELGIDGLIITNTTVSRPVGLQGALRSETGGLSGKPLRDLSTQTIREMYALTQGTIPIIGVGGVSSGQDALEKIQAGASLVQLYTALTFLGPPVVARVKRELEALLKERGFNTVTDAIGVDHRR

Cc1c(-c2ccc(-c3ccccc3F)cc2)nc2ccc(F)cc2c1C(=O)O [Brequinar, 6-fluoro-2-(2′-fluoro-1,1′ biphenyl-4-yl)-3-methyl-4-quinoline carboxylic acid]
All Body Systems: No. of Patients Experiencing the AE, 5y Max Grade 1 [1]: 36
All Body Systems: No. of Patients Experiencing the AE, 5y Max Grade 2 [1]: 76
All Body Systems: No. of Patients Experiencing the AE, 5y Max Grade 3 [1]: 55
All Body Systems: No. of Patients Experiencing the AE, 5y Max Grade 4 [1]: 35
Anemia: No. of Patients Experiencing the AE, 5y Max Grade 1 [1]: 14
Anemia: No. of Patients Experiencing the AE, 5y Max Grade 2 [1]: 48
Anemia: No. of Patients Experiencing the AE, 5y Max Grade 3 [1]: 23
Anemia: No. of Patients Experiencing the AE, 5y Max Grade 4 [1]: 5
Anorexia: No. of Patients Experiencing the AE, 5y Max Grade 1 [1]: 11
Anorexia: No. of Patients Experiencing the AE, 5y Max Grade 2 [1]: 3
Anorexia: No. of Patients Experiencing the AE, 5y Max Grade 3 [1]: 1
Anorexia: No. of Patients Experiencing the AE, 5y Max Grade 4 [1]: 0
Constipation: No. of Patients Experiencing the AE, 5y Max Grade 1 [1]: 6
Constipation: No. of Patients Experiencing the AE, 5y Max Grade 2 [1]: 2
Constipation: No. of Patients Experiencing the AE, 5y Max Grade 3 [1]: 1
Constipation: No. of Patients Experiencing the AE, 5y Max Grade 4 [1]: 0
Diarrhea: No. of Patients Experiencing the AE, 5y Max Grade 1 [1]: 43
Diarrhea: No. of Patients Experiencing the AE, 5y Max Grade 2 [1]: 21
Diarrhea: No. of Patients Experiencing the AE, 5y Max Grade 3 [1]: 10
Diarrhea: No. of Patients Experiencing the AE, 5y Max Grade 4 [1]: 3
Dyspepsia: No. of Patients Experiencing the AE, 5y Max Grade 1 [1]: 6
Dyspepsia: No. of Patients Experiencing the AE, 5y Max Grade 2 [1]: 1
Dyspepsia: No. of Patients Experiencing the AE, 5y Max Grade 3 [1]: 0
Dyspepsia: No. of Patients Experiencing the AE, 5y Max Grade 4 [1]: 0
Fatigue: No. of Patients Experiencing the AE, 5y Max Grade 1 [1]: 23
Fatigue: No. of Patients Experiencing the AE, 5y Max Grade 2 [1]: 8
Fatigue: No. of Patients Experiencing the AE, 5y Max Grade 3 [1]: 2
Fatigue: No. of Patients Experiencing the AE, 5y Max Grade 4 [1]: 0
Fever: No. of Patients Experiencing the AE, 5y Max Grade 1 [1]: 4
Fever: No. of Patients Experiencing the AE, 5y Max Grade 2 [1]: 7
Fever: No. of Patients Experiencing the AE, 5y Max Grade 3 [1]: 0
Fever: No. of Patients Experiencing the AE, 5y Max Grade 4 [1]: 0
Granulocytopenia: No. of Patients Experiencing the AE, 5y Max Grade 1 [1]: 16
Granulocytopenia: No. of Patients Experiencing the AE, 5y Max Grade 2 [1]: 17
Granulocytopenia: No. of Patients Experiencing the AE, 5y Max Grade 3 [1]: 3
Granulocytopenia: No. of Patients Experiencing the AE, 5y Max Grade 4 [1]: 5
Headache: No. of Patients Experiencing the AE, 5y Max Grade 1 [1]: 4
Headache: No. of Patients Experiencing the AE, 5y Max Grade 2 [1]: 3
Headache: No. of Patients Experiencing the AE, 5y Max Grade 3 [1]: 0
Headache: No. of Patients Experiencing the AE, 5y Max Grade 4 [1]: 0
Infection: No. of Patients Experiencing the AE, 5y Max Grade 1 [1]: 4
Infection: No. of Patients Experiencing the AE, 5y Max Grade 2 [1]: 3
Infection: No. of Patients Experiencing the AE, 5y Max Grade 3 [1]: 0
Infection: No. of Patients Experiencing the AE, 5y Max Grade 4 [1]: 0
Leukopenia: No. of Patients Experiencing the AE, 5y Max Grade 1 [1]: 26
Leukopenia: No. of Patients Experiencing the AE, 5y Max Grade 2 [1]: 31
Leukopenia: No. of Patients Experiencing the AE, 5y Max Grade 3 [1]: 10
Leukopenia: No. of Patients Experiencing the AE, 5y Max Grade 4 [1]: 2
Mucositis: No. of Patients Experiencing the AE, 5y Max Grade 1 [1]: 23
Mucositis: No. of Patients Experiencing the AE, 5y Max Grade 2 [1]: 15
Mucositis: No. of Patients Experiencing the AE, 5y Max Grade 3 [1]: 11
Mucositis: No. of Patients Experiencing the AE, 5y Max Grade 4 [1]: 3
Nausea: No. of Patients Experiencing the AE, 5y Max Grade 1 [1]: 59
Nausea: No. of Patients Experiencing the AE, 5y Max Grade 2 [1]: 19
Nausea: No. of Patients Experiencing the AE, 5y Max Grade 3 [1]: 12
Nausea: No. of Patients Experiencing the AE, 5y Max Grade 4 [1]: 1
Pain Inject Site: No. of Patients Experiencing the AE, 5y Max Grade 1 [1]: 24
Pain Inject Site: No. of Patients Experiencing the AE, 5y Max Grade 2 [1]: 0
Pain Inject Site: No. of Patients Experiencing the AE, 5y Max Grade 3 [1]: 0
Pain Inject Site: No. of Patients Experiencing the AE, 5y Max Grade 4 [1]: 0
Pain, Abdominal: No. of Patients Experiencing the AE, 5y Max Grade 1 [1]: 4
Pain, Abdominal: No. of Patients Experiencing the AE, 5y Max Grade 2 [1]: 3
Pain, Abdominal: No. of Patients Experiencing the AE, 5y Max Grade 3 [1]: 1
Pain, Abdominal: No. of Patients Experiencing the AE, 5y Max Grade 4 [1]: 0
Rash: No. of Patients Experiencing the AE, 5y Max Grade 1 [1]: 26
Rash: No. of Patients Experiencing the AE, 5y Max Grade 2 [1]: 15
Rash: No. of Patients Experiencing the AE, 5y Max Grade 3 [1]: 9
Rash: No. of Patients Experiencing the AE, 5y Max Grade 4 [1]: 3
Somnolence: No. of Patients Experiencing the AE, 5y Max Grade 1 [1]: 7
Somnolence: No. of Patients Experiencing the AE, 5y Max Grade 2 [1]: 2
Somnolence: No. of Patients Experiencing the AE, 5y Max Grade 3 [1]: 0
Somnolence: No. of Patients Experiencing the AE, 5y Max Grade 4 [1]: 0
Stomatitis: No. of Patients Experiencing the AE, 5y Max Grade 1 [1]: 32
Stomatitis: No. of Patients Experiencing the AE, 5y Max Grade 2 [1]: 20
Stomatitis: No. of Patients Experiencing the AE, 5y Max Grade 3 [1]: 7
Stomatitis: No. of Patients Experiencing the AE, 5y Max Grade 4 [1]: 1
Thrombocytopenia: No. of Patients Experiencing the AE, 5y Max Grade 1 [1]: 26
Thrombocytopenia: No. of Patients Experiencing the AE, 5y Max Grade 2 [1]: 31
Thrombocytopenia: No. of Patients Experiencing the AE, 5y Max Grade 3 [1]: 16
Thrombocytopenia: No. of Patients Experiencing the AE, 5y Max Grade 4 [1]: 21
Vomit: No. of Patients Experiencing the AE, 5y Max Grade 1 [1]: 32
Vomit: No. of Patients Experiencing the AE, 5y Max Grade 2 [1]: 24
Vomit: No. of Patients Experiencing the AE, 5y Max Grade 3 [1]: 12
Vomit: No. of Patients Experiencing the AE, 5y Max Grade 4 [1]: 5
clinical response ([2]; Example 9, first patient, […], improvement of extramedullary hematopoiesis, shift to more differentiation in peripheral blasts): positive response
clinical response ([2]; Example 10, second patient, lowering of peripheral blasts, increase in absolute neutrophil count, greater differentiation of peripheral blasts): positive response
clinical response ([2]; Example 11, indicated by a trend towards differentiation of peripheral blasts): positive response
DHO plasma level threshold achieved (DHODH [3]; Example 9, first patient with AML): 1,600 ng/mL
time remained above the DHO threshold (DHODH [3]; [8]): 84 h
time to achieve the DHO plasma level threshold (DHODH [3]; [8]): less than 24 hours
DHO plasma level threshold achieved (DHODH [3]; Example 10, second patient with AML): 2,900 ng/mL
time remained above the DHO threshold (DHODH [3]; [9]): 84 h
time to achieve the DHO plasma level threshold (DHODH [3]; [9]): < 24 h
DHO plasma level threshold achieved (DHODH [3]; Example 11, patient with AML): 133 ng/mL
time remained above the DHO threshold (DHODH [3]; [10]): 84 h
time to achieve the DHO plasma level threshold (DHODH [3]; [10]): less than 2 hours
effect of the combination on individual drug pharmacokinetic parameters [4]: without significant modifications of individual drug pharmacokinetic parameters
toxic effects [5]: weight loss, anemia, and thrombocytopenia
effect on leukemia-initiating cell activity [6]: decreases leukemia-initiating cell activity
concentration of DHO remaining in the plasma (DHODH [7]): about 100 ng/mL

Cc1c(-c2ccc(-c3ccccc3F)cc2)nc2ccc(F)cc2c1C(=O)O [Brequinar sodium]
tumour response observed (solid malignancies): One mixed response
